# From ChEMBL document CHEMBL5537201, “Discovery of Unique Bis-Substituted Aromatic Amide Derivatives as Novel Highly Potent Antibiotics for Combating Methicillin-Resistant Staphylococcus aureus (MRSA)” (J Med Chem, 2024)
# Calls of active or inactive are those of the source. No cut-off for these calls is given here.
# Experiments:
# Staphylococcus aureus [1] = experiment: Antimicrobial activity against Staphylococcus aureus ATCC6538 assessed as reduction in bacterial growth incubated for 24 hrs by two-fold broth dilution method; assay type: functional
# Staphylococcus aureus [2] = experiment: Antimicrobial activity against Staphylococcus aureus N315 assessed as reduction in bacterial growth incubated for 24 hrs by two-fold broth dilution method; assay type: functional
# Staphylococcus aureus [3] = experiment: Antimicrobial activity against methicillin resistant Staphylococcus aureus clinical isolate MRS207 assessed as reduction in bacterial growth incubated for 24 hrs by two-fold broth dilution method; assay type: functional
# Staphylococcus aureus [4] = experiment: Induction of drug resistance in Staphylococcus aureus ATCC6538 assessed as change in MIC measured after 10 passages; assay type: functional
# HeLa = experiment: Cytotoxicity against human HeLa cells assessed as reduction in cell viability measured after 24 hrs by CCK-8 method; assay type: functional, cell-based
# Staphylococcus aureus [5] = experiment: Bactericidal activity against Staphylococcus aureus ATCC6538 assessed as reduction in survival rate at 5 to 10 times MIC measured after 30 to 120 mins by colony counting method relative to control; assay type: functional; details: time 30-120 min
# [6] = Cytotoxicity against African green monkey Vero E6 cells assessed as reduction in cell viability measured after 24 hrs by CCK-8 method; assay type: toxicity, cell-based, Chlorocebus sabaeus, Vero C1008
# Staphylococcus aureus [7] = experiment: Antimicrobial activity against methicillin resistant Staphylococcus aureus clinical isolate MRS97 assessed as reduction in bacterial growth incubated for 24 hrs by two-fold broth dilution method; assay type: functional
# Staphylococcus aureus [8] = experiment: Antimicrobial activity against methicillin resistant Staphylococcus aureus clinical isolate MRS23 assessed as reduction in bacterial growth incubated for 24 hrs by two-fold broth dilution method; assay type: functional
# Staphylococcus hominis = experiment: Antimicrobial activity against methicillin-resistant Staphylococcus hominis assessed as reduction in bacterial growth incubated for 24 hrs by two-fold broth dilution method; assay type: functional
# Staphylococcus aureus [9] = experiment: Antimicrobial activity against methicillin resistant Staphylococcus aureus clinical isolate MRS1 assessed as reduction in bacterial growth incubated for 24 hrs by two-fold broth dilution method; assay type: functional
# Streptomyces albus = experiment: Antimicrobial activity against Streptomyces albus SHBC D11158 assessed as reduction in bacterial growth incubated for 24 hrs by two-fold broth dilution method; assay type: functional
# Staphylococcus aureus [10] = experiment: Antimicrobial activity against methicillin resistant Staphylococcus aureus clinical isolate MRS121 assessed as reduction in bacterial growth incubated for 24 hrs by two-fold broth dilution method; assay type: functional
# Staphylococcus aureus [11] = experiment: Antimicrobial activity against methicillin resistant Staphylococcus aureus clinical isolate MRS108 assessed as reduction in bacterial growth incubated for 24 hrs by two-fold broth dilution method; assay type: functional
# [12] = Selectivity index, ratio of HC50 for rabbit Red blood cell to MIC for Staphylococcus aureus ATCC6538; assay type: toxicity; details: red blood cells (erythrocytes), read-out: Selectivity Index
# [13] = Selectivity index, ratio of IC50 for African green monkey Vero E6 cells to MIC for Staphylococcus aureus ATCC6538; assay type: toxicity; details: read-out: Selectivity Index
# [14] = Cytotoxicity against human HaCaT cells assessed as reduction in cell viability measured after 24 hrs by CCK-8 method; assay type: toxicity, cell-based
# Staphylococcus aureus [15] = experiment: Antimicrobial activity against methicillin resistant Staphylococcus aureus clinical isolate MRS70 assessed as reduction in bacterial growth incubated for 24 hrs by two-fold broth dilution method; assay type: functional
# Staphylococcus aureus [16] = experiment: Antimicrobial activity against methicillin resistant Staphylococcus aureus clinical isolate MRS153 assessed as reduction in bacterial growth incubated for 24 hrs by two-fold broth dilution method; assay type: functional
# Staphylococcus aureus [17] = experiment: Antimicrobial activity against methicillin resistant Staphylococcus aureus clinical isolate MRS200 assessed as reduction in bacterial growth incubated for 24 hrs by two-fold broth dilution method; assay type: functional
# A549 = experiment: Cytotoxicity against human A549 cells assessed as reduction in cell viability measured after 24 hrs by CCK-8 method; assay type: functional, cell-based; details: A549, 24 h
# [18] = Hemolytic activity in rabbit Red blood cell assessed as hemolysis incubated for 1 hr by two-fold microdilution method; assay type: toxicity, cell-based, Oryctolagus cuniculus, Erythrocyte; details: red blood cells (erythrocytes)
# [19] = Cytotoxicity against HEK293 cells assessed as reduction in cell viability measured after 24 hrs by CCK-8 method; assay type: toxicity, cell-based; details: human
# Staphylococcus aureus [20] = experiment: Antimicrobial activity against methicillin resistant Staphylococcus aureus clinical isolate MRS84 assessed as reduction in bacterial growth incubated for 24 hrs by two-fold broth dilution method; assay type: functional
# Staphylococcus aureus [21] = experiment: Antimicrobial activity against methicillin resistant Staphylococcus aureus clinical isolate MRS273 assessed as reduction in bacterial growth incubated for 24 hrs by two-fold broth dilution method; assay type: functional
# Staphylococcus aureus [22] = experiment: Antimicrobial activity against methicillin resistant Staphylococcus aureus clinical isolate MRS152 assessed as reduction in bacterial growth incubated for 24 hrs by two-fold broth dilution method; assay type: functional
smiles,measurement,setting,value
O=C(CCC(F)(F)F)N(Cc1cc2ccccc2s1)c1c(O)cccc1-c1ccccc1,MIC,Staphylococcus aureus [1],2 µg/mL
same,MIC,Staphylococcus aureus [2],6 µg/mL
CCCCC(=O)N(Cc1cc2ccccc2o1)c1ccc2ccccc2c1O,MIC,Staphylococcus aureus [1],31.2 µg/mL
same,MIC,Staphylococcus aureus [2],62.5 µg/mL
O=C(CCC(F)(F)F)N(Cc1cc2ccccc2s1)c1cc(-c2ccco2)ccc1O,MIC,Staphylococcus aureus [3],8 µg/mL
same,Activity,Staphylococcus aureus [4],inactive
same,IC50,HeLa,> 25 µg/mL
same,MIC,Staphylococcus aureus [1],2 µg/mL
same,Survival,Staphylococcus aureus [5],<1%
same,IC50 at 24 h,[6],> 25 µg/mL
same,MIC,Staphylococcus aureus [7],3 µg/mL
same,MIC,Staphylococcus aureus [2],1 µg/mL
same,MIC,Staphylococcus aureus [8],2 µg/mL
same,MIC,Staphylococcus hominis,16 µg/mL
same,MIC,Staphylococcus aureus [9],6 µg/mL
same,MIC,Streptomyces albus,16 µg/mL
same,MIC,Staphylococcus aureus [10],6 µg/mL
same,MIC,Staphylococcus aureus [11],6 µg/mL
same,selectivity ratio,[12],> 1000
same,selectivity ratio,[13],> 25
same,IC50 at 24 h,[14],> 25 µg/mL
same,MIC,Staphylococcus aureus [15],6 µg/mL
same,MIC,Staphylococcus aureus [16],2 µg/mL
same,MIC,Staphylococcus aureus [17],6 µg/mL
same,IC50,A549,> 25 µg/mL
same,HC50 at 1 h,[18],1640 µg/mL
same,IC50 at 24 h,[19],15.4 µg/mL
same,MIC,Staphylococcus aureus [20],3 µg/mL
same,MIC,Staphylococcus aureus [21],3 µg/mL
same,MIC,Staphylococcus aureus [22],6 µg/mL
CCCCC(=O)N(Cc1ccc2oc3ccccc3c2c1)c1ccc2ccccc2c1O,MIC,Staphylococcus aureus [1],62.5 µg/mL
same,MIC,Staphylococcus aureus [2],125 µg/mL
CCCC(=O)N(Cc1cc2ccccc2s1)c1ccc2ccccc2c1O,MIC,Staphylococcus aureus [1],> 250 µg/mL
same,MIC,Staphylococcus aureus [2],> 250 µg/mL
COc1cc(-c2ccccc2)ccc1N(Cc1cc2ccccc2s1)C(=O)CCC(F)(F)F,MIC,Staphylococcus aureus [1],> 16 µg/mL
same,MIC,Staphylococcus aureus [2],> 16 µg/mL
O=C(CCC(F)(F)F)N(Cc1cc2ccccc2s1)c1cc(-c2cncnc2)ccc1O,MIC,Staphylococcus aureus [1],> 16 µg/mL
same,MIC,Staphylococcus aureus [2],> 16 µg/mL
O=C(CCC(F)(F)F)N(Cc1cc2ccccc2s1)c1cccc(-c2ccccc2)c1O,MIC,Staphylococcus aureus [1],> 16 µg/mL
same,MIC,Staphylococcus aureus [2],> 16 µg/mL
O=C(CCC(F)(F)F)N(Cc1cc2ccccc2s1)c1cc(-c2ccccc2)ccc1O,MIC,Staphylococcus aureus [3],2 µg/mL
same,Activity,Staphylococcus aureus [4],inactive
same,IC50,HeLa,> 25 µg/mL
same,MIC,Staphylococcus aureus [1],1 µg/mL
same,Survival,Staphylococcus aureus [5],<1%
same,IC50 at 24 h,[6],22.9 µg/mL
same,MIC,Staphylococcus aureus [7],2 µg/mL
same,MIC,Staphylococcus aureus [2],2 µg/mL
same,MIC,Staphylococcus aureus [8],3 µg/mL
same,MIC,Staphylococcus hominis,6 µg/mL
same,MIC,Staphylococcus aureus [9],3 µg/mL
same,MIC,Streptomyces albus,4 µg/mL
same,MIC,Staphylococcus aureus [10],3 µg/mL
same,MIC,Staphylococcus aureus [11],2 µg/mL
same,selectivity ratio,[12],> 1000
same,selectivity ratio,[13],22
same,IC50 at 24 h,[14],> 25 µg/mL
same,MIC,Staphylococcus aureus [15],3 µg/mL
same,MIC,Staphylococcus aureus [16],3 µg/mL
same,MIC,Staphylococcus aureus [17],3 µg/mL
same,IC50,A549,10.7 µg/mL
same,HC50 at 1 h,[18],1770 µg/mL
same,IC50 at 24 h,[19],7.8 µg/mL
same,MIC,Staphylococcus aureus [20],2 µg/mL
same,MIC,Staphylococcus aureus [21],3 µg/mL
same,MIC,Staphylococcus aureus [22],2 µg/mL
COc1ccc(-c2ccc(O)c(N(Cc3cc4ccccc4s3)C(=O)CCC(F)(F)F)c2)cc1,MIC,Staphylococcus aureus [3],> 16 µg/mL
same,MIC,Staphylococcus aureus [1],1 µg/mL
same,MIC,Staphylococcus aureus [7],16 µg/mL
same,MIC,Staphylococcus aureus [2],1 µg/mL
same,MIC,Staphylococcus aureus [8],> 16 µg/mL
same,MIC,Staphylococcus hominis,> 32 µg/mL
same,MIC,Staphylococcus aureus [9],> 16 µg/mL
same,MIC,Streptomyces albus,> 32 µg/mL
same,MIC,Staphylococcus aureus [10],16 µg/mL
same,MIC,Staphylococcus aureus [11],> 16 µg/mL
same,MIC,Staphylococcus aureus [15],> 16 µg/mL
same,MIC,Staphylococcus aureus [16],16 µg/mL
same,MIC,Staphylococcus aureus [17],16 µg/mL
same,MIC,Staphylococcus aureus [20],> 16 µg/mL
same,MIC,Staphylococcus aureus [21],16 µg/mL
same,MIC,Staphylococcus aureus [22],> 16 µg/mL
CCCCCC(=O)N(Cc1cc2ccccc2s1)c1ccc2ccccc2c1O,MIC,Staphylococcus aureus [1],> 250 µg/mL
same,MIC,Staphylococcus aureus [2],> 250 µg/mL
CC(C)(C)c1ccc(-c2ccc(O)c(N(Cc3cc4ccccc4s3)C(=O)CCC(F)(F)F)c2)cc1,MIC,Staphylococcus aureus [1],2 µg/mL
same,MIC,Staphylococcus aureus [2],1 µg/mL
CCCCC(=O)N(Cc1ccc2c(c1)CCO2)c1ccc2ccccc2c1O,MIC,Staphylococcus aureus [1],62.5 µg/mL
same,MIC,Staphylococcus aureus [2],62.5 µg/mL
O=C(CCC(F)(F)F)N(Cc1cc2ccccc2s1)c1cc(-c2ccc(C(F)(F)F)cc2)ccc1O,MIC,Staphylococcus aureus [3],16 µg/mL
same,Activity,Staphylococcus aureus [4],inactive
same,IC50,HeLa,5 µg/mL
same,MIC,Staphylococcus aureus [1],0.5 µg/mL
same,IC50 at 24 h,[6],5.55 µg/mL
same,MIC,Staphylococcus aureus [7],3 µg/mL
same,MIC,Staphylococcus aureus [2],2 µg/mL
same,MIC,Staphylococcus aureus [8],16 µg/mL
same,MIC,Staphylococcus hominis,8 µg/mL
same,MIC,Staphylococcus aureus [9],16 µg/mL
same,MIC,Streptomyces albus,8 µg/mL
same,MIC,Staphylococcus aureus [10],6 µg/mL
same,MIC,Staphylococcus aureus [11],16 µg/mL
same,selectivity ratio,[12],> 1000
same,selectivity ratio,[13],11
same,IC50 at 24 h,[14],3.92 µg/mL
same,MIC,Staphylococcus aureus [15],6 µg/mL
same,MIC,Staphylococcus aureus [16],6 µg/mL
same,MIC,Staphylococcus aureus [17],16 µg/mL
same,IC50,A549,3.61 µg/mL
same,HC50 at 1 h,[18],5570 µg/mL
same,IC50 at 24 h,[19],2.79 µg/mL
same,MIC,Staphylococcus aureus [20],6 µg/mL
same,MIC,Staphylococcus aureus [21],6 µg/mL
same,MIC,Staphylococcus aureus [22],6 µg/mL
CCCCC(=O)N(Cc1ccc2c(c1)OCO2)c1ccc2ccccc2c1O,MIC,Staphylococcus aureus [1],31.2 µg/mL
same,MIC,Staphylococcus aureus [2],31.2 µg/mL
C=CCCC(=O)N(Cc1cc2ccccc2s1)c1ccc2ccccc2c1O,MIC,Staphylococcus aureus [1],> 250 µg/mL
same,MIC,Staphylococcus aureus [2],> 250 µg/mL
